Read-outs that look alike come from different tables or passages of the source.
What was measured:
[1] = test system: Pseudomonas aeruginosa MB9798 vs MB9799
Procedure, shortened: (§1)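 Steps: add fixed imipenem and/or ceftazidime (usually CLSI breakpoint) and fixed AmpC-directed class A/C inhibitor to microbroth MIC wells; titrate MBL inhibitor; record concentration regaining susceptibility for each PAO1-derived strain; divide efflux+ by efflux− value.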

[2] = target: NDM-1 (Klebsiella pneumoniae, UniProt C7C422); assay: biochemical; type: biochemical; conditions: fluorescence assay, CCF2-FA substrate, 1 pM enzyme, 2 hours at 25° C.; read-out: NDM-1 IC50
Procedure, shortened: (§2)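 IC50 values derive from 4-parameter fits of percent inhibition against inhibitor concentration on semi-log axes. Activity was monitored by fluorescence with the CCF2-FA substrate after a 2-hour, 25° C incubation of compound, enzyme and substrate.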

[3] = target: IMP-1 (Serratia marcescens, UniProt P52699); assay: biochemical; type: biochemical; conditions: fluorescence assay, CCF2-FA substrate, 2 pM enzyme, 2 hours at 25° C.; read-out: IMP-1 IC50
Procedure, shortened: as §2

[4] = test system: Pseudomonas aeruginosa efflux+ (MB9798), IMP-1; type: cell-based; set-up: Concentration of metallo-β-lactamase inhibitor which restores susceptibility of efflux + (MB9798) strain to imipenem: unit not given here; conditions: C, D serine β-lactamase inhibitor closely related to relebactam; for P. aeruginosa expressing IMP-1, efflux + (MB9798) MITC95: concentration restoring susceptibility to imipenem at 2 μg/mL in the presence of a class A; for Concentration of metallo-β-lactamase inhibitor which restores susceptibility of efflux + (MB9798) strain to imipenem: imipenem at 2 μg/mL, in the presence of a class A
Procedure, shortened: as §1

[5] = target: VIM-1 (Pseudomonas aeruginosa (strain ATCC 15692 / DSM 22644 / CIP 104116 / JCM 14847 / LMG 12228 / 1C / PRS 101 / PAO1), UniProt A0A0F7KYQ8); assay: biochemical; conditions: CCF2-FA substrate, 30 pM enzyme, 2 hours at 25° C.
Procedure, shortened: as §2

[6] = test system: Serratia marcescens expressing IMP-1 (CL5741); type: cell-based; conditions: for Serratia marcescens MITC95: IMP-1 strain CL5741, with imipenem 1 μg/ml; for Serratia marcescens expressing IMP-1 (CL5741) MITC95: with imipenem 1 μg/ml
Procedure, shortened: (§3)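 Clinical isolates (E. coli NDM-1, S. marcescens IMP-1, K. pneumoniae VIM-1) were diluted 1:100 from saline suspension into 1.1×CAMHB and exposed to test compound with imipenem at 1 μg/ml. Plates were incubated at 35° C for 22 hours to 24 hours, and growth was read by absorbance.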

[7] = test system: Klebsiella pneumoniae expressing VIM-1 (IHMA599644); type: cell-based; conditions: for Klebsiella pneumoniae MITC95: VIM-1 strain IHMA599644, with imipenem 1 μg/ml; for Klebsiella pneumoniae expressing VIM-1 (IHMA599644) MITC95: with imipenem 1 μg/ml
Procedure, shortened: as §3

[8] = test system: Escherichia coli expressing NDM-1 (CLB30005, CLB30016); type: cell-based; conditions: with imipenem 1 μg/ml; for Escherichia coli MITC95: NDM-1 strain
Procedure, shortened: as §3

[9] = test system: Pseudomonas aeruginosa efflux− (MB9799), IMP-1; type: cell-based; conditions: C, D serine β-lactamase inhibitor closely related to relebactam; for P. aeruginosa expressing IMP-1, efflux − (MB9799) MITC95: concentration restoring susceptibility to imipenem at 2 μg/mL in the presence of a class A; for Concentration of metallo-β-lactamase inhibitor which restores susceptibility of efflux − (MB9799) strain to imipenem: imipenem at 2 μg/mL, in the presence of a class A
Procedure, shortened: as §1

[10] = ratio MITC95 PA_9798/MITC95 PA_9799
[11] = fold difference between efflux+ (MB9798) and efflux− (MB9799) strains, imipenem at 2 μg/mL
[12] = fluorescence assay, read-out: VIM-1 IC50
[13] = 95% inhibition of bacterial growth

NDM-1, sequence (C7C422 whole entry, looked up, species assumed): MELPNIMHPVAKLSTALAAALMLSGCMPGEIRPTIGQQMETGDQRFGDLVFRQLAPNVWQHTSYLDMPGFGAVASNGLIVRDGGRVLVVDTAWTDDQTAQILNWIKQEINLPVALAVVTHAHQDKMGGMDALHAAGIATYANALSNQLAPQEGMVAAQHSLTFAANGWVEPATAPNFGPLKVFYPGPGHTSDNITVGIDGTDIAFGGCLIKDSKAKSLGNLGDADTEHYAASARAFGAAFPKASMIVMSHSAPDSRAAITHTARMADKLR
IMP-1, sequence (P52699 whole entry, looked up, species assumed): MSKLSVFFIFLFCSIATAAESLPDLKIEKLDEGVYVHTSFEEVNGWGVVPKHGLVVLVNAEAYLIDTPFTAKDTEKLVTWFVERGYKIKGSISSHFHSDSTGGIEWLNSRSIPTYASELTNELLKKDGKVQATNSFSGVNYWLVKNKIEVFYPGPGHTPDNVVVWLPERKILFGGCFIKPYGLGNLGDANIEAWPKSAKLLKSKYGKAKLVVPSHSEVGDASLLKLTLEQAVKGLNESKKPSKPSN

| SMILES | Efflux ratio [1, 10] | IC50 [2] | IC50 [3] | P. aeruginosa expressing IMP-1, efflux + (MB9798) MITC95 [4] | IC50 ([5]; VIM-1 IC50, fluorescence assay) | Serratia marcescens MITC95 ([6]; 95% inhibition of growth) | Klebsiella pneumoniae MITC95 ([7]; 95% inhibition of growth) | Escherichia coli MITC95 ([8]; 95% inhibition of growth) | P. aeruginosa expressing IMP-1, efflux − (MB9799) MITC95 [9] | Efflux ratio [1, 11] | Concentration of metallo-β-lactamase inhibitor which restores susceptibility of efflux + (MB9798) strain to imipenem [4] | IC50 [5, 12] | Serratia marcescens MITC95 [6, 13] | Klebsiella pneumoniae MITC95 [7, 13] | Escherichia coli MITC95 [8, 13] | Concentration of metallo-β-lactamase inhibitor which restores susceptibility of efflux − (MB9799) strain to imipenem [9] | Serratia marcescens expressing IMP-1 (CL5741) MITC95 [6, 13] | Klebsiella pneumoniae expressing VIM-1 (IHMA599644) MITC95 [7, 13] | Escherichia coli expressing NDM-1 (CLB30016) MITC95 [8, 13] |
| --- | --- | --- | --- | --- | --- | --- | --- | --- | --- | --- | --- | --- | --- | --- | --- | --- | --- | --- | --- |
| Nc1nc2c(-c3ccc(S(=O)(=O)NC[C@@H]4CCCN4)c(S(N)(=O)=O)c3-c3nn[nH]n3)cccc2[nH]1 [Example 262, (S)-4-(2-amino-1H-benzo[d]imidazol-4-yl)-N1-(pyrrolidin-2-ylmethyl)-3-(2H-tetrazol-5-yl)benzene-1,2-disulfonamide] | 1.00 | 0.0768 nM | 0.925 nM | 0.7813 µM | 0.295 nM | 0.7813 µM | 0.7813 µM | 0.1953 µM | 0.7813 µM | – | – | – | – | – | – | – | – | – | – |
| Cl.Cl.NCCCNS(=O)(=O)c1ccc(-c2ccc(N)nc2)c(-c2nn[nH]n2)c1S(N)(=O)=O [Example 496, N1-(3-aminopropyl)-4-(6-aminopyridin-3-yl)-3-(2H-tetrazol-5-yl)benzene-1,2-disulfonamide hydrogen chloride] | – | 0.2 nM | 0.576 nM | – | – | – | – | – | – | 1.00 | 0.7813 | 0.175 nM | 0.7813 µM | 1.563 µM | 0.09766 µM | 0.7813 | – | – | – |
| Nc1nc2c(-c3ccc(S(=O)(=O)N[C@H]4CO[C@H]5[C@H]4OC[C@H]5O)c(S(N)(=O)=O)c3-c3nnn[nH]3)cccc2s1 [Example 50, 2-({[4-(2-amino-1,3-benzothiazol-4-yl)-2-sulfamoyl-3-(1H-tetrazol-5-yl)phenyl]sulfonyl}amino)-1,4:3,6-dianhydro-2-deoxy-D-allitol] | 2.00 | 0.0408 nM | 0.263 nM | 12.5 µM | 0.25 nM | – | – | – | 6.25 µM | – | – | – | – | – | – | – | 12.5 µM | 25 µM | 25 µM |
| CNc1ccc(-c2ccc(S(=O)(=O)N[C@@H]3CCNC3)c(S(N)(=O)=O)c2-c2nn[nH]n2)cn1 [Example 242] | 1.00 | 0.0611 nM | 0.157 nM | 0.7813 µM | – | – | – | – | 0.7813 µM | – | – | 0.0841 nM | – | – | – | – | 0.7813 µM | 1.563 µM | 0.7813 µM |
| C[C@H](CN)NS(=O)(=O)c1ccc(-c2ccc(N)nc2)c(-c2nn[nH]n2)c1S(N)(=O)=O [Example 393, (R)—N^1-(1-aminopropan-2-yl)-4-(6-aminopyridin-3-yl)-3-(2H-tetrazol-5-yl)benzene-1,2-disulfonamide] | – | 0.0219 nM | 0.0629 nM | – | – | 1.042 µM | 2.083 µM | 0.651 µM | – | 0.75 | 0.7813 | 0.0454 nM | – | – | – | 1.042 | – | – | – |
| Nc1nc2c(-c3ccc(S(=O)(=O)N[C@@H]4CNC[C@@H]4F)c(S(N)(=O)=O)c3-c3nnn[nH]3)cccc2s1 [Example 58, 4-(2-amino-1,3-benzothiazol-4-yl)-N1-[(3R,4S)-4-fluoropyrrolidin-3-yl]-3-(1H-tetrazol-5-yl)benzene-1,2-disulfonamide] | 1.00 | 0.0686 nM | 0.759 nM | 1.563 µM | – | – | – | – | 1.563 µM | – | – | 0.404 nM | – | – | – | – | 1.563 µM | 3.125 µM | 1.563 µM |
